Reference: US6737383B1, “Herbicidal oxadiazolidines” (priority 1999, dated 2004)

Legend:
pigweed = experiment: Test B pre/postemergence pigweed; assay type: in vivo, Amaranthus retroflexus
Summary of the method: (§1)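 Test chemicals in a non-phytotoxic solvent mixture with surfactant were sprayed preemergence onto planted seeds and postemergence onto plants 2 to 18 cm tall (1- to 4-leaf stage). After twelve to sixteen days in a greenhouse, injury was visually rated against untreated controls from 0 (no effect) to 10 (complete control).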

wild oat = experiment: Test B pre/postemergence wild oat; assay type: in vivo, Avena fatua
Summary of the method: as §1

giant foxtail = experiment: Test B pre/postemergence giant foxtail; assay type: in vivo, Setaria faberii
Summary of the method: as §1

crabgrass = experiment: Test B pre/postemergence crabgrass; assay type: in vivo, Digitaria sanguinalis
Summary of the method: as §1

purple nutsedge = experiment: Test B pre/postemergence purple nutsedge; assay type: in vivo, Cyperus rotundus
Summary of the method: as §1

smallflower flatsedge = experiment: Test B flood test smallflower flatsedge; assay type: in vivo, Cyperus difformis
Summary of the method: (§2)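 Read-out is a visual response score from 0 (no effect) to 10 (complete control), assigned by comparison with untreated controls. Treatment was applied at the 2-leaf stage, and plants stayed in the greenhouse for twelve to sixteen days before scoring.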

bamyardgrass = experiment: Test B flood test barnyardgrass; assay type: in vivo, Echinochloa crus-galli
Summary of the method: as §2

morningglory = experiment: Test B pre/postemergence morningglory; assay type: in vivo, Ipomoea hederacea
Summary of the method: as §1

surinam grass = experiment: Test B pre/postemergence surinam grass; assay type: in vivo, Brachiaria decumbens
Summary of the method: as §1

sugar beet = experiment: Test B pre/postemergence sugar beet; assay type: in vivo, Beta vulgaris
Summary of the method: as §1

corn = experiment: Test B pre/postemergence corn; assay type: in vivo, Zea mays
Summary of the method: as §1

soybean = experiment: Test B pre/postemergence soybean; assay type: in vivo, Glycine max
Summary of the method: as §1

cocklebur = experiment: Test B pre/postemergence cocklebur; assay type: in vivo, Xanthium strumarium
Summary of the method: as §1

rice = experiment: Test B flood test rice; assay type: in vivo, Oryza sativa
Summary of the method: as §2

duck salad = experiment: Test B flood test duck salad; assay type: in vivo, Heteranthera limosa
Summary of the method: as §2

rape = experiment: Test B pre/postemergence rape; assay type: in vivo, Brassica napus
Summary of the method: as §1

[1] = Preemergence, Rate 62 g/ha, scale of 0 to 10 where 0 is no effect and 10 is complete control
[2] = Preemergence, Rate 250 g/ha, scale of 0 to 10 where 0 is no effect and 10 is complete control
[3] = Preemergence, Rate 500 g/ha, scale of 0 to 10 where 0 is no effect and 10 is complete control
[4] = Rate 62 g/ha, Postemergence, scale 0 to 10 (0 no effect, 10 complete control)
[5] = Rate 125 g/ha, Postemergence, scale of 0 to 10 where 0 is no effect and 10 is complete control
[6] = Rate 250 g/ha, Postemergence, scale of 0 to 10 where 0 is no effect and 10 is complete control
[7] = Rate 62 g/ha, headed Pre-emergence (flood test species), scale 0 to 10 (0 no effect, 10 complete control)
[8] = Rate 125 g/ha, Pre-emergence, flood test species, scale 0 to 10 where 0 is no effect and 10 is complete control
[9] = Rate 250 g/ha, Pre-emergence, flood-test species, scale 0 to 10, 0 is no effect, 10 is complete control
[10] = Rate 500 g/ha, Pre-emergence, flood test species, scale 0 to 10 (0 no effect, 10 complete control)
[11] = Rate 500 g/ha, Postemergence, scale 0 to 10, 0 no effect, 10 complete control

CCN(C(=O)n1oc(=O)n(C2CC2)c1=O)C1CCCCC1 [Compound 298]
3: Morningglory plant response rating (morningglory; [5]) | Plant response rating, Morningglory (morningglory; [6]) | Soybean plant response rating (soybean; [5]) | Plant response rating, Soybean (soybean; [6])
0: Redroot pigweed plant response rating (pigweed; [1]) | Redroot pigweed plant response rating (0 to 10 scale) (pigweed; Preemergence, Rate 125 g/ha) | Redroot pigweed plant response rating (pigweed; [2]) | Plant response rating, Redroot pigweed (pigweed; [3]) | Redroot pigweed plant response rating (pigweed; [4]) | Redroot pigweed plant response rating (pigweed; [5]) | Plant response rating, Redroot pigweed (pigweed; [6]) | Wild oats plant response rating (wild oat; [1]) | Wild oats plant response rating (0 to 10 scale) (wild oat; Preemergence, Rate 125 g/ha) | Wild oats plant response rating (wild oat; [2]) | Plant response rating, Wild oats (wild oat; [3]) | Wild oats plant response rating (wild oat; [4]) | Wild oats plant response rating (wild oat; [5]) | Plant response rating, Wild oats (wild oat; [6]) | Giant foxtail plant response rating (giant foxtail; [1]) | Giant foxtail plant response rating (0 to 10 scale) (giant foxtail; Preemergence, Rate 125 g/ha) | Giant foxtail plant response rating (giant foxtail; [4]) | Giant foxtail plant response rating (giant foxtail; [5]) | Plant response rating, Giant foxtail (giant foxtail; [6]) | Crabgrass plant response rating (crabgrass; [1]) | Crabgrass plant response rating (0 to 10 scale) (crabgrass; Preemergence, Rate 125 g/ha) | Crabgrass plant response rating (crabgrass; [2]) | Plant response rating, Crabgrass (crabgrass; [3]) | Crabgrass plant response rating (crabgrass; [4]) | Crabgrass plant response rating (crabgrass; [5]) | Plant response rating, Crabgrass (crabgrass; [6]) | Nutsedge plant response rating (purple nutsedge; [1]) | Nutsedge plant response rating (0 to 10 scale) (purple nutsedge; Preemergence, Rate 125 g/ha) | Nutsedge plant response rating (purple nutsedge; [2]) | Plant response rating, Nutsedge (purple nutsedge; [3]) | Nutsedge plant response rating (purple nutsedge; [4]) | Nutsedge plant response rating (purple nutsedge; [5]) | Plant response rating, Nutsedge (purple nutsedge; [6]) | S. Flatsedge plant response rating (smallflower flatsedge; [7]) | S. Flatsedge plant response rating (smallflower flatsedge; [8]) | S. Flatsedge plant response rating (smallflower flatsedge; [9]) | S. Flatsedge plant response rating (smallflower flatsedge; [10]) | Barnyardgrass plant response rating (bamyardgrass; [7]) | Barnyardgrass plant response rating (bamyardgrass; [8]) | Barnyardgrass plant response rating (bamyardgrass; [9]) | Barnyardgrass plant response rating (bamyardgrass; [10]) | Morningglory plant response rating (morningglory; [1]) | Morningglory plant response rating (0 to 10 scale) (morningglory; Preemergence, Rate 125 g/ha) | Morningglory plant response rating (morningglory; [2]) | Plant response rating, Morningglory (morningglory; [3]) | Morningglory plant response rating (morningglory; [4]) | B. signalgrass plant response rating (surinam grass; [1]) | B. signalgrass plant response rating (0 to 10 scale, 0 is no effect, 10 is complete control) (surinam grass; Preemergence, Rate 125 g/ha) | B. signalgrass plant response rating (surinam grass; [2]) | Plant response rating, B. signalgrass (surinam grass; [3]) | B. signalgrass plant response rating (surinam grass; [4]) | B. signalgrass plant response rating (surinam grass; [5]) | Plant response rating, B. signalgrass (surinam grass; [6]) | B. signalgrass plant response rating (surinam grass; [11]) | Sugarbeets plant response rating (sugar beet; [1]) | Sugarbeets plant response rating (0 to 10 scale) (sugar beet; Preemergence, Rate 125 g/ha) | Sugarbeets plant response rating (sugar beet; [2]) | Plant response rating, Sugarbeets (sugar beet; [3]) | Sugarbeets plant response rating (sugar beet; [4]) | Sugarbeets plant response rating (sugar beet; [5]) | Plant response rating, Sugarbeets (sugar beet; [6]) | Corn plant response rating (corn; [1]) | Corn plant response rating (0 to 10 scale) (corn; Preemergence, Rate 125 g/ha) | Corn plant response rating (corn; [2]) | Plant response rating, Corn (corn; [3]) | Corn plant response rating (corn; [4]) | Corn plant response rating (corn; [5]) | Plant response rating, Corn (corn; [6]) | Corn plant response rating (corn; [11]) | Soybean plant response rating (soybean; [1]) | Soybean plant response rating (0 to 10 scale) (soybean; Preemergence, Rate 125 g/ha) | Soybean plant response rating (soybean; [2]) | Plant response rating, Soybean (soybean; [3]) | Soybean plant response rating (soybean; [4]) | Cocklebur plant response rating (cocklebur; [1]) | Cocklebur plant response rating (0 to 10 scale) (cocklebur; Preemergence, Rate 125 g/ha) | Cocklebur plant response rating (cocklebur; [2]) | Plant response rating, Cocklebur (cocklebur; [3]) | Cocklebur plant response rating (cocklebur; [4]) | Cocklebur plant response rating (cocklebur; [5]) | Plant response rating, Cocklebur (cocklebur; [6]) | Cocklebur plant response rating (cocklebur; [11]) | Rice plant response rating (rice; [7]) | Rice plant response rating (rice; [8]) | Rice plant response rating (rice; [9]) | Rice plant response rating (rice; [10]) | Ducksalad plant response rating (duck salad; [7]) | Ducksalad plant response rating (duck salad; [8]) | Ducksalad plant response rating (duck salad; [9]) | Ducksalad plant response rating (duck salad; [10]) | Rape plant response rating (rape; [1]) | Rape plant response rating (0 to 10 scale) (rape; Preemergence, Rate 125 g/ha) | Rape plant response rating (rape; [2]) | Plant response rating, Rape (rape; [3]) | Rape plant response rating (rape; [4]) | Rape plant response rating (rape; [5]) | Plant response rating, Rape (rape; [6])
